Measured values: publication PMC9934367, “Functional impact of subunit composition and compensation on Drosophila melanogaster nicotinic receptors–targets of neonicotinoids” (PLOS Genetics, 2023)
Read-outs that look alike come from different tables or passages of the source.

Legend:
[1] = molecular target: Dα1/Dα2/Dα4/Dβ1/Dβ2 nAChR; details: mean ± standard error (n = 5); for Imax: normalised to maximum ACh response
Description: (§1) cDNAs of the nAChR subunits and co-factors were cloned into pcDNA3.1 (+) vector (Thermo Fisher Scientific). The accession numbers of the nAChR subunits and cofactors are as follows: Dα1 (NP_524481), Dα2 (NP_524482), Dα3 (NP_525079), Dα4 (CAB77445), Dβ1 (NP_523927), Dβ2 (NP_524483), Dβ3 (NP_525098), DmRIC-3 (CAP16647), DmUNC-50 (NP_649813), and DmTMX3 (NP_648847). cRNAs were prepared using the mMESSAGE mMACHINE T7 ULTRA Transcription Kit (Thermo Fisher Scientific, #AM1345) according to the manual with the cDNA template which was cut with appropriate restriction enzymes at the 3’ end of the cDNA.
(§2) We minimised the use of X. laevis according to the UK Animals (Scientific Procedures) Act, 1986. […] Oocytes were defolliculated after collagenase treatment in Ca^2+-free standard oocyte saline (Ca^2+-free SOS). cRNAs of the nAChR subunits and co-factors mixed at a concentration of 0.1 mg/mL was injected into oocytes at a volume of 50 nL. Then the oocytes were incubated in the incubation medium (SOS supplemented with sodium pyruvate (Nacalai Tesque, #13058–12), penicillin-streptomycin (MilliporeSigma, #P4333), gentamycin (Nacalai Tesque, #16672–04), and 4% horse serum (Thermo Fisher Scientific, #26050–070) for 3−4 days prior to electrophysiology.
(§3) Each defolliculated X. laevis oocyte was secured in a Perspex recording chamber and perfused with the standard oocyte saline (SOS) containing 0.5 μM atropine (SOSA) at a flow rate of 7−10 mL/min [48]. Two glass electrodes filled with 2 M KCl were impaled into each oocyte and the membrane potential was clamped at -100 mV. […] The peak amplitude of the response was measured and analysed by pCLAMP (Molecular Devices, USA).
(§4) Y=Imax/1+10^(logEC50‐X)nH
(§5) Where Y is the normalised response, X is log[ligand (M)], EC50 is the half maximal concentration (M), Imax is the maximum normalised response and nH is the Hill coefficient.

[2] = molecular target: Dα2/Dα3/Dα4/Dβ1/Dβ2 nAChR; details: mean ± standard error (n = 5); for Imax: normalised to maximum ACh response
Description: as §1, §2, §3, §4, §5

[3] = molecular target: Dα1/Dα3/Dα4/Dβ1/Dβ2 nAChR; details: mean ± standard error (n = 5); for Imax: normalised to maximum ACh response
Description: as §1, §2, §3, §4, §5

[4] = molecular target: T1, Dα1/Dα3/Dβ1/Dβ2 nAChR (Drosophila melanogaster, UniProt P04755+P09478+P25162+Q9W3G6); assay: cell-based; parameters: species or system D. melanogaster; details: mean ± standard error (n = 5)
T1 construct: Dα1 (NP_524481); Dβ1 (NP_523927); Dβ2 (NP_524483); expressed in transfected cells; host or cells: Xenopus laevis oocytes (cRNA injection)
Description: as §1, §2, §3, §4, §5

[5] = molecular target: T2, Dα1/Dα2/Dα3/Dβ1 nAChR (Drosophila melanogaster, UniProt P04755+P09478+P17644+Q9W3G6); assay: cell-based; parameters: species or system D. melanogaster; details: mean ± standard error (n = 5)
T2 construct: Dα1 (NP_524481); Dα2 (NP_524482); Dβ1 (NP_523927); expressed in transfected cells; host or cells: Xenopus laevis oocytes (cRNA injection)
Description: as §1, §2, §3, §4, §5

[6] = molecular target: T3, Dα1/Dα3/Dβ1 nAChR (Drosophila melanogaster, UniProt P04755+P09478+Q9W3G6); assay: cell-based; parameters: species or system D. melanogaster
T3 construct: Dα1 (NP_524481); Dβ1 (NP_523927); expressed in transfected cells; host or cells: Xenopus laevis oocytes (cRNA injection)
Description: as §1, §2, §3, §4, §5

[7] = normalised to maximum ACh response
[8] = efficacy, mean ± standard error (n = 5)
[9] = mean ± standard error (n = 5), read-out: pEC50 (converted)
[10] = normalised to maximum ACh response, mean ± standard error (n = 5)

| SMILES | pEC50 [1] | Imax [1] | Imax ([1]; listed as clothianidin) | pEC50 [2] | Imax [2] | pEC50 [3] | Imax [3] | Imax ([3]; listed as clothianidin) | Imax ([4]; efficacy) | EC50 [4] [nM] | Imax [4, 7] | Imax ([5]; efficacy) | EC50 [5] [nM] | Imax [5, 7] | Imax [6, 8] | EC50 [6, 9] [nM] | Imax [6, 10] | Imax ([2]; listed as imidacloprid) | Imax ([2]; listed as thiacloprid) | EC50 ([6]; read-out: EC50) [nM] |
| --- | --- | --- | --- | --- | --- | --- | --- | --- | --- | --- | --- | --- | --- | --- | --- | --- | --- | --- | --- | --- |
| CN/C(=N\[N+](=O)[O-])NCc1cnc(Cl)s1 [Clothianidin, clothianidin] | 6.72 ± 0.09 | 1.001 ± 0.031 | 1.001 | 7.11 ± 0.12 | 0.912 ± 0.041 | 6.94 ± 0.06 | 0.425 ± 0.008 | 0.425 | 0.684 | 39.8 | 0.684 ± 0.022 | 0.817 | 282 | 0.817 ± 0.024 | 0.627 | 63.1 | 0.627 ± 0.025 | – | – | – |
| O=[N+]([O-])NC1=NCCN1Cc1ccc(Cl)nc1 [Imidacloprid, imidacloprid] | 6.48 ± 0.28 | 0.172 ± 0.020 | – | 7.40 ± 0.20 | 0.027 ± 0.002 | 7.30 ± 0.17 | 0.101 ± 0.008 | – | 0.330 | 30.2 | 0.330 ± 0.018 | 0.094 | 83.2 | 0.094 ± 0.007 | 0.170 | 26.3 | 0.170 ± 0.020 | 0.027 | – | – |
| N#C/N=C1\SCCN1Cc1ccc(Cl)nc1 [Thiacloprid, thiacloprid] | 7.01 ± 0.19 | 0.066 ± 0.007 | – | 7.99 ± 0.20 | 0.018 ± 0.002 | 7.96 ± 0.10 | 0.026 ± 0.001 | – | 0.107 | 10 | 0.107 ± 0.015 | 0.047 | 18.6 | 0.047 ± 0.004 | 0.047 | – | 0.047 ± 0.006 | – | 0.018 | 8.51 |
| CC(=O)OCC[N+](C)(C)C [ACh, acetylcholine] | – | – | – | – | – | – | – | – | 1 | – | – | 1 | – | – | 1 | – | – | – | – | – |
